For three compounds, inhibition results are on record in PubChem BioAssay AID602347 (The Scripps Research Institute Molecular Screening Center, 2012).

By inhibition is commonly meant how much of the control response was suppressed.

This assay has as its target Monoacylglycerol lipase ABHD6 (Mus musculus) (UniProt Q8R2Y0). The experiment in a line: ABHD6 inhibition in mouse brain after dosing, late-stage follow-up, in vivo study for DAGLb inhibitor project, gel-based competitive ABPP, fluorescence (AID 602347). Conditions: active compounds read high, dose or concentration not given here.

Sequence of Monoacylglycerol lipase ABHD6 (Mus musculus) (Q8R2Y0 whole entry, looked up): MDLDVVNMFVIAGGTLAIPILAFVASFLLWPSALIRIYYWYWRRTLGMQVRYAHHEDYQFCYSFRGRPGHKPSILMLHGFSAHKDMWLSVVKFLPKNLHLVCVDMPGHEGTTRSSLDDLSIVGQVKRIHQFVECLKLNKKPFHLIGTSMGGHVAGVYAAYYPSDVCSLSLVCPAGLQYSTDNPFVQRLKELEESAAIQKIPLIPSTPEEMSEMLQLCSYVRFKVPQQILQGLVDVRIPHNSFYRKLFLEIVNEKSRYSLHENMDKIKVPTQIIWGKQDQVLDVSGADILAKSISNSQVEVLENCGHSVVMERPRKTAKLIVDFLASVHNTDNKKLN

For the compound `O=C(N1CCCCC1Cc1ccccc1)n1cc(-c2ccc(-c3ccccc3C(F)(F)F)cc2)nn1` (stereo unspecified), the inhibition (with FP-Rh probe) was 95% and the inhibition (with HT-01 probe) is 95%.

Take `COc1ccccc1-c1ccc(-c2cn(C(=O)N3CCCCC3Cc3ccccc3)nn2)cc1` (stereo unspecified): the inhibition (with FP-Rh probe) is 100% and the inhibition (with HT-01 probe) was 100%.

For the compound `O=C(N1CCCCC1Cc1ccccc1)n1cc(-c2ccc(-c3ccccc3)cc2)nn1` (stereo unspecified), the inhibition is, setting by setting: (with FP-Rh probe) 100%; (with HT-01 probe) 100%.
